Measurements: patent US6099822A, “Imaging methods and compositions” (priority 1998, dated 2000)

How the values were obtained:
[1] = test system: Chinese hamster ovary cells; conditions: in words; cited from earlier work
[2] = test system: MX-1 human breast tumor xenografts; test: Autoradiographic biodistribution of Tc-99m-TG and C14-DG in nude mice bearing MX-1 tumors; assay type: in vivo; conditions: MX-1, center of the tumors, in words
Procedure: 3 mCi (111 MBq) of Tc-99m-5TG and 5 μCi (185 kBq) of C^14 -DG were injected at the same time into the tail vein of the mice. Autoradiogram sections including the tumors and vital organs of the mice were obtained at 20 minutes, 1 hour, and 3 hours post injection and developed using simultaneous Tc-99m and C^14 exposures of the same sections.

Compound	Exclusion by hypoxic cells [1]	Distribution within tumor [2]
O=C([O-])CN(CCN(CC(=O)[O-])CC(=O)[O-])CCN(CC(=O)[O-])CC(=O)[O-].[99Tc+4] [Tc-99m-DTPA]	exclusion of Tc-99m-DTPA by hypoxic cells	–
C^14 -2-deoxyglucose [C^14 -DG]	–	decreased activity in this central area
